From paper PMC4470473 (Cancer cell, 2015)
Where two headings read alike, the source gives them in different places.

Columns and labels:
H460 cells [1] = assay: SRB growth assay, single agents and combination; format: cell-based, human
Bcl2 = Bcl2 expression by IHC in tumor tissues of NSCLC patients; format: in vivo, human; conditions: 5 or 10mg/day orally, 28 days, 10 NSCLC patients
[2] = test system: H460 lung cancer xenografts; assay: H460 lung cancer xenografts
A549 cells = assay: Bcl2 expression by Western blot after mTOR inhibition; format: cell-based, human; conditions: increasing concentrations, 24 hr
H460 cells [3] = assay: as above; format: cell-based, human; conditions: increasing concentrations, 24 hr
[4] = cited from earlier work
purified recombinant Bax = assay: Cell-free Bax activation, IP with 6A7 Bax antibody; format: biochemical; conditions: for direct Bax activation: Bax without Bcl2
[5] = test system: H460 or DMS53 cells expressing Bcl2 shRNA1; assay: Rescue of Bcl2-silenced cells with exogenous WT or AAAA Bcl2; format: cell-based, human
SCLC PDX = assay: Patient-derived xenograft; format: in vivo, Nu/Nu nude mice; conditions: 20mg/kg/d i.p., 2 weeks
[6] = molecular target: Purified recombinant Bcl2 protein (Homo sapiens, UniProt P10415); assay: Cell-free Bcl2 conformational change, IP with anti-Bcl2/BH3 domain antibody; format: biochemical; conditions: cell-free system
E13A Bcl2 mutant = E13A Bcl2 mutant (Homo sapiens, UniProt P10415, E13A); assay: Competitive fluorescence polarization assay; format: binding
D31A Bcl2 mutant = D31A Bcl2 mutant (Homo sapiens, UniProt P10415, D31A); assay: Competitive fluorescence polarization assay; format: binding
K17A Bcl2 mutant = K17A Bcl2 mutant (Homo sapiens, UniProt P10415, K17A); assay: Competitive fluorescence polarization assay; format: binding
Single-dose MTD = format: in vivo
D10A Bcl2 mutant = D10A Bcl2 mutant (Homo sapiens, UniProt P10415, D10A); assay: Competitive fluorescence polarization assay; format: binding
Bcl2 ΔBH4 = Bcl2 ΔBH4 (Homo sapiens, UniProt P10415, DEL6-31); assay: Fluorescence polarization assay; format: binding; conditions: BH4 domain deficient Bcl2
N11A Bcl2 mutant = N11A Bcl2 mutant (Homo sapiens, UniProt P10415, N11A); assay: Competitive fluorescence polarization assay; format: binding
R12A Bcl2 mutant = R12A Bcl2 mutant (Homo sapiens, UniProt P10415, R12A); assay: Competitive fluorescence polarization assay; format: binding
Bcl2 (WT) = Bcl2 (WT) (Homo sapiens, UniProt P10415); assay: Competitive fluorescence polarization assay with fluorescent Bak peptide; format: binding
H1299 cells = assay: Cell survival of H1299 cells overexpressing exogenous WT or mutant Bcl2; format: cell-based, human
[7] = test system: NSCLC and SCLC cell lines; assay: Cell growth; format: cell-based, human
Bfl-1/A1 = Bfl-1/A1 (Homo sapiens, UniProt Q16548); assay: Fluorescence polarization assay; format: binding
Chain of Bfl-1/A1 (Q16548 whole entry): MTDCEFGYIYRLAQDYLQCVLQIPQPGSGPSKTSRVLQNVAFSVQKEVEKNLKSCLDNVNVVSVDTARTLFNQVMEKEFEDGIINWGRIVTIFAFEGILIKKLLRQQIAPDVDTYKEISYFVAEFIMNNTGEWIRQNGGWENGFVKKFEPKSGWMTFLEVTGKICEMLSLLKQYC

Bcl2 ΔBH2 = assay: Fluorescence polarization assay; format: binding; conditions: deletion of BH2
Bcl2 ΔBH3 = assay: Fluorescence polarization assay; format: binding; conditions: deletion of BH3
[8] = test system: mitochondria isolated from H1299 cells; assay: Cyt c release from isolated mitochondria; format: biochemical, human; conditions: 1μM, 30 min, 30°C
H460 cells [9] = assay: Autophagy; format: cell-based, human
[10] = Maximum tolerated dose, 12-day daily i.p. treatment; format: in vivo
Bcl-XL = Bcl-XL (Homo sapiens, UniProt Q07817); assay: Fluorescence polarization assay; format: binding
Chain of Bcl-XL (Q07817 whole entry, species assumed): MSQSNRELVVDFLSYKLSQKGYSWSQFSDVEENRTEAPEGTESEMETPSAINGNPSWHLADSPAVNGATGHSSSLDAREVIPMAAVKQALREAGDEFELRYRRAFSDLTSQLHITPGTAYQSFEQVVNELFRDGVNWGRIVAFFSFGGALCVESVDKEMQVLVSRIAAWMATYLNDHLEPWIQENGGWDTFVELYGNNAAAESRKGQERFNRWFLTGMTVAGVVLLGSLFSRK

[11] = test system: H460, H157, DMS53, DMS153 and H146 cells expressing Bcl2 shRNA; assay: Apoptosis; format: cell-based, human; conditions: 1μM, 72 hr; Bcl2 shRNA1, shRNA2 or shRNA3
H20A Bcl2 mutant = H20A Bcl2 mutant (Homo sapiens, UniProt P10415, H20A); assay: Competitive fluorescence polarization assay; format: binding
Mcl-1 = Mcl-1 (Homo sapiens, UniProt Q07820); assay: Fluorescence polarization assay; format: binding
Chain of Mcl-1 (Q07820 whole entry, species assumed): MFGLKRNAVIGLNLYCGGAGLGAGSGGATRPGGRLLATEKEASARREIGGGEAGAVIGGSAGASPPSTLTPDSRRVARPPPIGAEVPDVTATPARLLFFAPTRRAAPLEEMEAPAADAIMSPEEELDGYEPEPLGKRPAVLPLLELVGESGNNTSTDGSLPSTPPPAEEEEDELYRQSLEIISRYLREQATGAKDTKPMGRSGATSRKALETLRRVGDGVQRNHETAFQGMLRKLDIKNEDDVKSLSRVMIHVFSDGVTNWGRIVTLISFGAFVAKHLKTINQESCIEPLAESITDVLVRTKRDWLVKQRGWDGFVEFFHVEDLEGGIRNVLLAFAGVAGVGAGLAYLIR

Plasmid pUC19 DNA = assay: Electrophoretic mobility shift assay; format: binding
[12] = test system: normal small airway epithelial cell line (SAEC); assay: Annexin-V/PI cell viability in normal cells; format: cell-based; conditions: 1μM, 72 hr
[13] = molecular target: D10A/N11A/R12A/E13A (AAAA) Bcl2 mutant (Homo sapiens, UniProt P10415, D10A/E13A/N11A/R12A); assay: Competitive fluorescence polarization assay; format: binding
MEF cells = assay: Apoptotic effect on WT and Bax knockout MEF cells; format: cell-based
Bcl2 ΔBH1 = assay: Fluorescence polarization assay; format: binding; conditions: deletion of BH1
H460 cells [14] = assay: Bcl2/IP3R interaction and Ca2+ release; format: cell-based, human; conditions: increasing concentrations, 24h
M16A Bcl2 mutant = M16A Bcl2 mutant (Homo sapiens, UniProt P10415, M16A); assay: Competitive fluorescence polarization assay; format: binding
[15] = exogenous AAAA Bcl2 mutant, 72 hr
[16] = 10, 20, 30mg/kg/d i.p., 14 days

CO[C@H]1C[C@@H]2CC[C@@H](C)[C@@](O)(O2)C(=O)C(=O)N2CCCC[C@H]2C(=O)O[C@H]([C@H](C)C[C@@H]2CC[C@@H](OCCO)[C@H](OC)C2)CC(=O)[C@H](C)/C=C(\C)[C@@H](O)[C@@H](OC)C(=O)[C@H](C)C[C@H](C)/C=C/C=C/C=C/1C [RAD001, everolimus]
cell growth inhibition (H460 cells [1]; 1nM): partially inhibited | Bcl2 expression in post-treatment vs baseline tumor tissues (Bcl2): increased expression of Bcl2 | apoptosis in tumor tissues ([2]; 1mg/kg/d, 14 days, alone): did not cause significant apoptosis | Bcl2 expression (A549 cells): up-regulation of Bcl2 in a dose-dependent manner | Bcl2 expression (H460 cells [3]): up-regulation of Bcl2 in a dose-dependent manner

CN(C)CC[C@H](CSc1ccccc1)Nc1ccc(S(=O)(=O)NC(=O)c2ccc(N3CCN(Cc4ccccc4-c4ccc(Cl)cc4)CC3)cc2)cc1[N+](=O)[O-] [ABT-737]
thrombocytopenia ([4]; ref Schoenwaelder et al., 2011): can induce thrombocytopenia

BAM7 [reference compound]
direct Bax activation (purified recombinant Bax): can directly activate Bax

CC1(C)CCC(c2ccc(Cl)cc2)=C(CN2CCN(c3ccc(C(=O)NS(=O)(=O)c4ccc(N[C@H](CCN5CCOCC5)CSc5ccccc5)c(S(=O)(=O)C(F)(F)F)c4)cc3)CC2)C1 [ABT-263]
thrombocytopenia ([4]; ref Schoenwaelder et al., 2011): can induce thrombocytopenia

CC1(C)CCC(CN2CCN(c3ccc(C(=O)NS(=O)(=O)c4ccc(NCC5CCOCC5)c([N+](=O)[O-])c4)c(Oc4cnc5[nH]ccc5c4)c3)CC2)=C(c2ccc(Cl)cc2)C1 [ABT-199, reference compound]
sensitivity of cells [5, 15]: restored the sensitivity | sensitivity of cells ([5]; exogenous WT Bcl2, 72 hr): restored sensitivity | thrombocytopenia ([4]; in vivo, ref Souers et al., 2013): did not cause thrombocytopenia

CCN(CC)C[C@@H](O)CNc1ccc(NC[C@H]2CO2)c2c1C(=O)c1ccccc1C2=O [BDA-366]
cell growth inhibition (H460 cells [1]; 100nM): partially inhibited | tumor growth (SCLC PDX): potently suppressed the growth | body weight ([2]; 30mg/kg): Slight weight loss | apoptosis in tumor tissues (active caspase 3, TUNEL) [2, 16]: dose-dependent apoptosis induction | tumor growth [2, 16]: dose-dependent repression | histopathology of normal tissues ([2]; 10–30mg/kg/d): no evidence of normal tissue toxicities | Bcl2 BH3 domain exposure in tumor tissues (QD-IHF) ([2]; 14 days): dose-dependent exposure of the Bcl2 BH3 domain | active Bax (6A7) in tumor tissues (QD-IHF) ([2]; 14 days): increased level of 6A7 binding to Bax | kidney (BUN) and liver (ALT and AST) function ([2]; up to 30mg/kg/d, 14 days): in the normal range | neutrophils, lymphocytes, RBC and platelets in blood ([2]; up to 30mg/kg/d, 14 days): no decreases | sensitivity of cells [5, 15]: not to BDA-366 | sensitivity of cells ([5]; exogenous WT Bcl2, 72 hr): restored sensitivity | direct Bax activation (purified recombinant Bax): is not a direct Bax activator | Bcl2-dependent Bax activation (purified recombinant Bax; Bcl2 pre-treated with compound 1 hr, then Bax 2 hr): enhanced the ability of Bax to bind to 6A7 antibody | Bcl2 conformational change (BH3 domain exposure) [6]: enhanced the ability of the Bcl2/BH3 domain-specific antibody to bind Bcl2 | Ki (E13A Bcl2 mutant): 4.5 ± 0.71 nM | Ki (D31A Bcl2 mutant): 3.7 ± 0.91 nM | Ki (K17A Bcl2 mutant): 4.2 ± 0.45 nM | maximum therapeutic dose for continuous treatment (Single-dose MTD; 10% of single dose MTD): 30~40 mg/kg | single dose MTD (Single-dose MTD; mouse, in vivo): 300 to 400 mg/kg | toxicity (Single-dose MTD; single dose 300mg/kg i.p.): did not cause weight loss or other toxicities | ALT and AST (Single-dose MTD; single dose 400mg/kg): significantly enhanced | pathological analysis of organs (Single-dose MTD; single dose 400mg/kg): microsteatosis in the liver and atrophic white pulp in the spleen | time to death (Single-dose MTD; single dose 400mg/kg): 4 days | Ki (D10A Bcl2 mutant): 4.8 ± 0.41 nM | binding (Bcl2 ΔBH4): failed to bind | Ki (N11A Bcl2 mutant): 4.1 ± 0.67 nM | Ki (R12A Bcl2 mutant): 4.3 ± 0.54 nM | Ki (Bcl2 (WT)): 3.3 ± 0.73 nM | cell survival (H1299 cells; compound Bcl2 AAAA mutant): significantly prolonged cell survival | sensitivity of cells (H1299 cells; exogenous WT or single site Bcl2 mutants): enhanced sensitivity | sensitivity of cell lines ([7]; higher Bcl2: H157, Calu-1, H358, H460, H1975, DMS53, DMS153, H146, H69): more sensitive | sensitivity of cell lines ([7]; lower or undetectable Bcl2: A549, H1299, DMS114, H128): less sensitive | binding (Bfl-1/A1): did not bind | effect of domain deletion on binding (Bcl2 ΔBH2): did not significantly affect | effect of domain deletion on binding (Bcl2 ΔBH3): did not significantly affect | Cyt c release ([8]; WT Bcl2 mitochondria): induced Cyt c release | Cyt c release ([8]; ΔBH3 and vector-only control mitochondria): not from ΔBH3 and vector-only control cells | LC3-II levels (H460 cells [9]; 1 μM, 24h): Increased levels of LC3-II | percentage of GFP-LC3vac cells (H460 cells [9]; vs DMSO control): significantly increases | time to death (uniformly lethal) ([10]; 40mg/kg/d i.p.): ≤ 8 days | time to death (uniformly lethal) ([10]; 50mg/kg/d i.p.): up to 12 days | lethality ([10]; 10 to 30mg/kg/d i.p., up to 12 days): no death | binding (Bcl-XL): did not bind | sensitivity after depletion of endogenous Bcl2 [11]: significantly reduced sensitivity | Ki (H20A Bcl2 mutant): 3.8 ± 0.47 nM | binding (Mcl-1): did not bind | DNA binding (mobility shift) (Plasmid pUC19 DNA): but not BDA-366 can bind to pUC19 DNA | sensitivity of normal cells [12]: less sensitive | Ki [13]: 598.64 ± 0.12 nM | sensitivity of Bax deficient vs WT MEF cells (MEF cells): significantly resistant | effect of domain deletion on binding (Bcl2 ΔBH1): did not significantly affect | Bcl2/IP3R binding (H460 cells [14]): reduced Bcl2/IP3R binding | Ca2+ release (H460 cells [14]): increased Ca^2+ release | Ki (M16A Bcl2 mutant): 3.9 ± 0.31 nM

COc1cc([C@@H]2c3cc4c(cc3[C@@H](O[C@@H]3O[C@@H]5CO[C@@H](C)O[C@H]5[C@H](O)[C@H]3O)[C@H]3COC(=O)[C@H]23)OCO4)cc(OC)c1O [VP-16]
Bcl2 conformational change (BH3 domain exposure) [6]: not a chemotherapeutic agent (i.e. VP-16 or cisplatin) can directly induce Bcl2 conformational change

N.N.[Cl][Pt][Cl] [cisplatin, reference compound]
Bcl2 conformational change (BH3 domain exposure) [6]: not a chemotherapeutic agent (i.e. VP-16 or cisplatin) can directly induce Bcl2 conformational change | DNA binding (mobility shift) (Plasmid pUC19 DNA): can bind to pUC19 DNA
